Measurements reported in patent publication US10399974B2, “N2-phenyl-pyrido[3,4-D]pyrimidine-2, 8-diamine derivatives and their use as Mps1 inhibitors” (Cancer Research Technology Limited, priority 2014, dated 2019).

Molecular target: full length MPS1 (Homo sapiens (Human), UniProt P33981)
Assay: Measurement of Inhibition of MPS1 Kinase
Type: biochemical
Settings: full length MPS1 12.5 nM or 3 nM, H236 peptide 5 μM, ATP 10 μM, 60 min at room temperature, Caliper EZ reader II; read-out: MPS1 IC50
Protocol: Measurement of Inhibition of MPS1 Kinase
(5 μM), ATP (10 μM), either DMSO (1% v/v) or the test compound (in the range 0.25 nM-100 μM in 1% DMSO) and assay buffer (50 mM HEPES (pH 7.0), 0.02% NaN3, 0.01% BSA, 0.1 mM Orthovandate, […], 1 μM DTT, Roche protease inhibitor). The reaction was carried out for 60 min at room temperature and stopped by the addition of buffer (10 μl) containing 20 mM EDTA, 0.05% (v/v) Brij-35, in 0.1M HEPES-buffered saline (Free acid, Sigma, UK). The plate was read on a Caliper EZ reader II (Caliper Life Sciences).
The reader provides a Software package (‘Reviewer’) which converts the peak heights into % conversion by measuring both product and substrate peak and also allows selection of control well which represent 0% and 100% inhibition, respectively. The % inhibition of the compounds is calculated relative to the means of selected control wells. IC50s are determined by testing the compounds at a range of concentrations from 0.25 nM-100 μM. The % inhibitions at each concentration are then fitted to a 4 parameter logistic fit: y=(a+((b−a)/(1+((c/x^d)))) where a=asym min, b=asym max, c=IC50 and d=hill coefficient

Chain of full length MPS1 (P33981 whole entry): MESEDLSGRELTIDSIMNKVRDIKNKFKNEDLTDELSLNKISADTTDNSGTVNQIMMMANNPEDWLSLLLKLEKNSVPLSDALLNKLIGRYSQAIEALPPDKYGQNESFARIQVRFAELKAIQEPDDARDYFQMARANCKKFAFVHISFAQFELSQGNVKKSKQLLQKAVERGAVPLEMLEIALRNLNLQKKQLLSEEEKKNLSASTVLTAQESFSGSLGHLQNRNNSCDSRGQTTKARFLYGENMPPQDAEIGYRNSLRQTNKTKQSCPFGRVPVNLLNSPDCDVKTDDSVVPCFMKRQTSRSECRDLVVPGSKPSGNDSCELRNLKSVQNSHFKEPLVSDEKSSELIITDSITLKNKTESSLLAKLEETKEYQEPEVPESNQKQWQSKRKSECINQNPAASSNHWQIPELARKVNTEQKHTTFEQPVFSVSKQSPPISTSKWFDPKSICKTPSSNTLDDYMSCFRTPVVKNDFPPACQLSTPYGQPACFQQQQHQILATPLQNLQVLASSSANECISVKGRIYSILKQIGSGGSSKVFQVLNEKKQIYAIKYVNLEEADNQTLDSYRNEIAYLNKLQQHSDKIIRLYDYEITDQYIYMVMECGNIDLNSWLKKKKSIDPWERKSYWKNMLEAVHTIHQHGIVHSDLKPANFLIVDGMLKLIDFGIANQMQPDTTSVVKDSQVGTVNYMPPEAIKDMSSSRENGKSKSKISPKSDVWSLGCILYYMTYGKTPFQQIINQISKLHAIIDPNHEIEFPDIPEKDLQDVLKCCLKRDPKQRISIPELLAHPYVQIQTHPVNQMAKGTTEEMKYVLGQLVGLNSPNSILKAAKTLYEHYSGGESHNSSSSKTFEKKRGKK

| SMILES | IC50 [nM] |
| --- | --- |
| CCOc1cc(-c2nncn2C)ccc1Nc1ncc2cc(C)nc(N3CC(C(F)(F)F)C3)c2n1 [Example 40, N-(2-ethoxy-4-(4-methyl-4H-1,2,4-triazol-3-yl)phenyl)-6-methyl-8-(3-(trifluoromethyl)azetidin-1-yl)pyrido[3,4-d]pyrimidin-2-amine] | 5 |
| CCOc1cc(-c2nncn2C)ccc1Nc1ncc2cc(C)nc(NCC3(C)CCOC3)c2n1 (centres unmarked) [Example 2, N2-(2-ethoxy-4-(4-methyl-4H-1,2,4-triazol-3-yl)phenyl)-6-methyl-N8-((3-methyltetrahydrofuran-3-yl)methyl)pyrido[3,4-d]pyrimidine-2,8-diamine] | 2 |
| CCOc1cc(-c2nnc(C)n2C)ccc1Nc1ncc2cc(C)nc(NCC(C)(C)C)c2n1 [Example 7, N2-(4-(4,5-dimethyl-4H-1,2,4-triazol-3-yl)-2-ethoxyphenyl)-6-methyl-N8-neopentylpyrido[3,4-d]pyrimidine-2,8-diamine] | 4 |
| CCOc1cc(-c2nncn2C)ccc1Nc1ncc2cc(C)nc(N3CCC(C)(C#N)CC3)c2n1 [Example 28, 1-(2-((2-ethoxy-4-(4-methyl-4H-1,2,4-triazol-3-yl)phenyl)amino)-6-methylpyrido[3,4-d]pyrimidin-8-yl)-4-methylpiperidine-4-carbonitrile] | 2 |
| CCOc1cc(-c2nncn2C)ccc1Nc1ncc2cc(C)nc(N[C@@H](C)C(C)(C)C)c2n1 [Example 54, (S)-N8-(3,3-dimethylbutan-2-yl)-N2-(2-ethoxy-4-(4-methyl-4H-1,2,4-triazol-3-yl)phenyl)-6-methylpyrido[3,4-d]pyrimidine-2,8-diamine] | 4 |
| CCOc1cc(-c2nncn2C)ccc1Nc1ncc2cc(C)nc(N3CC(C)(C#N)C3)c2n1 [Example 3, 1-(2-((2-ethoxy-4-(4-methyl-4H-1,2,4-triazol-3-yl)phenyl)amino)-6-methylpyrido[3,4-d]pyrimidin-8-yl)-3-methylazetidine-3-carbonitrile] | 3 |
| CCOc1cc(-c2nncn2C)ccc1Nc1ncc2cc(C)nc(NC3CN(C)C3)c2n1 [Example 58, N2-(2-ethoxy-4-(4-methyl-4H-1,2,4-triazol-3-yl)phenyl)-6-methyl-N8-(1-methylazetidin-3-yl)pyrido[3,4-d]pyrimidine-2,8-diamine] | 518 |
| CCOc1cc(-c2nncn2C)ccc1Nc1ncc2cc(C)nc(N3CC4CC4C3)c2n1 (centres unmarked) [Example 50, 8-(3-azabicyclo[3.1.0]hexan-3-yl)-N-(2-ethoxy-4-(4-methyl-4H-1,2,4-triazol-3-yl)phenyl)-6-methylpyrido[3,4-d]pyrimidin-2-amine] | 2 |
| COc1cc(-c2ncco2)ccc1Nc1ncc2cc(C)nc(NCC(C)(C)C)c2n1 [Example 14, N2-(2-methoxy-4-(oxazol-2-yl)phenyl)-6-methyl-N8-neopentylpyrido[3,4-d]pyrimidine-2,8-diamine] | 59 |
| CCOc1cc(-c2nncn2C)ccc1Nc1ncc2cc(C)nc(NCC3(OC)CCC3)c2n1 [Example 59, N2-(2-ethoxy-4-(4-methyl-4H-1,2,4-triazol-3-yl)phenyl)-N8-((1-methoxycyclobutyl)methyl)-6-methylpyrido[3,4-d]pyrimidine-2,8-diamine] | 4 |
| CCOc1cc(-c2nncn2C)ccc1Nc1ncc2cc(C)nc(N3CCC(O)CC3)c2n1 [Example 52, 1-(2-(2-ethoxy-4-(4-methyl-4H-1,2,4-triazol-3-yl)phenylamino)-6-methylpyrido[3,4-d]pyrimidin-8-yl)piperidin-4-ol] | 2 |
| COc1cc(-c2nnnn2C)ccc1Nc1ncc2cc(C)nc(NCC(C)(C)C)c2n1 [Example 16, N2-(2-methoxy-4-(1-methyl-1H-tetrazol-5-yl)phenyl)-6-methyl-N8-neopentylpyrido[3,4-d]pyrimidine-2,8-diamine] | 5 |
| CCOc1cc(-c2nncn2C)ccc1Nc1ncc2cc(C)nc(N3CCOC(C)C3)c2n1 (racemic) [Example 48, Racemic-N-(2-ethoxy-4-(4-methyl-4H-1,2,4-triazol-3-yl)phenyl)-6-methyl-8-(2-methylmorpholino)pyrido[3,4-d]pyrimidin-2-amine] | 3 |
| CCOc1cc(-c2nncn2C)ccc1Nc1ncc2cc(C)nc(N3CCC3(C)C)c2n1 [Example 42, 8-(2,2-dimethylazetidin-1-yl)-N-(2-ethoxy-4-(4-methyl-4H-1,2,4-triazol-3-yl)phenyl)-6-methylpyrido[3,4-d]pyrimidin-2-amine] | 10 |
| CCOc1cc(-c2nncn2C)ccc1Nc1ncc2cc(C)nc(NCC3(O)CC3)c2n1 [Example 31, 1-(((2-((2-ethoxy-4-(4-methyl-4H-1,2,4-triazol-3-yl)phenyl)amino)-6-methylpyrido[3,4-d]pyrimidin-8-yl)amino)methyl)cyclopropanol] | 8 |
| COc1cc(-c2ccnn2C)ccc1Nc1ncc2cc(C)nc(NCC(C)(C)C)c2n1 [Example 13, N2-(2-methoxy-4-(1-methyl-1H-pyrazol-5-yl)phenyl)-6-methyl-N8-neopentylpyrido[3,4-d]pyrimidine-2,8-diamine] | 18 |

Further lines, results first:

| IC50 [nM] | SMILES |
| --- | --- |
| 20 | CCOc1cc(-c2nnc(C)n2C)ccc1Nc1ncc2cc(C)nc(N3CC(C)(C)C3)c2n1 [Example 22, N-(4-(4,5-dimethyl-4H-1,2,4-triazol-3-yl)-2-ethoxyphenyl)-8-(3,3-dimethylazetidin-1-yl)-6-methylpyrido[3,4-d]pyrimidin-2-amine] |
| 4 | CCOc1cc(-c2nncn2C)ccc1Nc1ncc2cc(C)nc(N3CC(C)(O)C3)c2n1 [Example 9, 1-(2-((2-ethoxy-4-(4-methyl-4H-1,2,4-triazol-3-yl)phenyl)amino)-6-methylpyrido[3,4-d]pyrimidin-8-yl)-3-methylazetidin-3-ol] |
| 4 | CCOc1cc(-c2nncn2C)ccc1Nc1ncc2cc(C)nc(N3CC(C)(OCC)C3)c2n1 [Example 61, 8-(3-ethoxy-3-methylazetidin-1-yl)-N-(2-ethoxy-4-(4-methyl-4H-1,2,4-triazol-3-yl)phenyl)-6-methylpyrido[3,4-d]pyrimidin-2-amine] |
| 3 | CCOc1cc(-c2nncn2C)ccc1Nc1ncc2cc(C)nc(N3CC(CC)(OC)C3)c2n1 [Example 60, N-(2-ethoxy-4-(4-methyl-4H-1,2,4-triazol-3-yl)phenyl)-8-(3-ethyl-3-methoxyazetidin-1-yl)-6-methylpyrido[3,4-d]pyrimidin-2-amine] |
| 5 | COc1cc(-c2cnc(C)n2C)ccc1Nc1ncc2cc(C)nc(N3CC(C)(C)C3)c2n1 [Example 19, N-(4-(1,2-dimethyl-1H-imidazol-5-yl)-2-methoxyphenyl)-8-(3,3-dimethylazetidin-1-yl)-6-methylpyrido[3,4-d]pyrimidin-2-amine] |
| 12 | COc1cc(-c2cnc(C)n2C)ccc1Nc1ncc2cc(C)nc(N3CC4(CCOCC4)C3)c2n1 [Example 20, N-(4-(1,2-dimethyl-1H-imidazol-5-yl)-2-methoxyphenyl)-6-methyl-8-(7-oxa-2-azaspiro[3.5]nonan-2-yl)pyrido[3,4-d]pyrimidin-2-amine] |
| 2 | CCOc1cc(-c2nncn2C)ccc1Nc1ncc2cc(C)nc(N3CC(C)(OC)C3)c2n1 [Example 30, N-(2-ethoxy-4-(4-methyl-4H-1,2,4-triazol-3-yl)phenyl)-8-(3-methoxy-3-methylazetidin-1-yl)-6-methylpyrido[3,4-d]pyrimidin-2-amine] |
